# According to the supplement of paper PMC10307832:
# Assays:
# Test in all cases: relative viability (nuclei count vs DMSO), 5 days (fraction); higher = more cells survive
# Erlotinib + AZD7762 = compound: C#Cc1cccc(Nc2ncnc3cc(OCCOC)c(OCCOC)cc23)c1 [Erlotinib] + NC(=O)Nc1cc(-c2cccc(F)c2)sc1C(=O)N[C@H]1CCCNC1 [AZD7762] (partner 0.2 µM)
# Method in brief: (§1)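 Lung cancer cell lines in 1536-well plates were dosed by pin tool the day after seeding, either with one drug alone or with a fixed anchor-drug dose plus five library-drug doses (not always all listed) in √10 steps. After 5 days, cells were fixed and their nuclei stained in one step (final 0.05% Triton X-100, 1% formaldehyde, 1 ug/ml Hoechst), then counted on 4× images. Relative viability is the nuclei count in treated wells divided by that in vehicle wells. Values are medians of duplicate plates.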
# Erlotinib + Vorinostat = compound: C#Cc1cccc(Nc2ncnc3cc(OCCOC)c(OCCOC)cc23)c1 [Erlotinib] + O=C(CCCCCCC(=O)Nc1ccccc1)NO [Vorinostat] (partner 1 µM)
# Method in brief: as §1
# Erlotinib + Dasatinib = compound: C#Cc1cccc(Nc2ncnc3cc(OCCOC)c(OCCOC)cc23)c1 [Erlotinib] + Cc1nc(Nc2ncc(C(=O)Nc3c(C)cccc3Cl)s2)cc(N2CCN(CCO)CC2)n1 [Dasatinib] (partner 0.075 µM)
# Method in brief: as §1
# Erlotinib + Crizotinib = compound: C#Cc1cccc(Nc2ncnc3cc(OCCOC)c(OCCOC)cc23)c1 [Erlotinib] + C[C@@H](Oc1cc(-c2cnn(C3CCNCC3)c2)cnc1N)c1c(Cl)ccc(F)c1Cl [Crizotinib] (partner 1 µM)
# Method in brief: as §1
# Erlotinib + Phenformin = compound: C#Cc1cccc(Nc2ncnc3cc(OCCOC)c(OCCOC)cc23)c1 [Erlotinib] + N=C(N)NC(=N)NCCc1ccccc1 [Phenformin] (partner 250 µM)
# Method in brief: as §1
Cell Line,relative viability (Erlotinib + AZD7762; first compound 0.02 µM),relative viability (Erlotinib + AZD7762; first compound 0.2 µM),relative viability (Erlotinib + AZD7762; first compound 0.6325 µM),relative viability (Erlotinib + AZD7762; first compound 2 µM),relative viability (Erlotinib + Vorinostat; first compound 0.02 µM),relative viability (Erlotinib + Vorinostat; first compound 0.2 µM),relative viability (Erlotinib + Vorinostat; first compound 0.6325 µM),relative viability (Erlotinib + Vorinostat; first compound 2 µM),relative viability (Erlotinib + Dasatinib; first compound 0.02 µM),relative viability (Erlotinib + Dasatinib; first compound 0.2 µM),relative viability (Erlotinib + Dasatinib; first compound 0.6325 µM),relative viability (Erlotinib + Dasatinib; first compound 2 µM),relative viability (Erlotinib + Crizotinib; first compound 0.02 µM),relative viability (Erlotinib + Crizotinib; first compound 0.2 µM),relative viability (Erlotinib + Crizotinib; first compound 0.6325 µM),relative viability (Erlotinib + Crizotinib; first compound 2 µM),relative viability (Erlotinib + Phenformin; first compound 0.02 µM),relative viability (Erlotinib + Phenformin; first compound 0.2 µM),relative viability (Erlotinib + Phenformin; first compound 0.6325 µM),relative viability (Erlotinib + Phenformin; first compound 2 µM)
HCC-366,0.346,0.258,0.191,0.0996,0.41,0.363,0.369,0.222,0.61,0.606,0.637,0.522,0.49,0.524,0.736,0.502,0.599,0.661,0.601,0.567
IA-LM,–,–,–,–,0.905,0.72,–,0.744,–,–,–,–,0.808,1,0.93,0.85,–,–,–,–
NCI-H520,–,–,–,–,0.718,0.693,0.83,0.71,0.188,0.186,0.245,0.234,0.683,0.9,0.987,0.68,0.751,0.525,0.646,0.706
NCI-H522,0.812,0.893,1.02,0.833,0.949,0.832,0.869,0.762,0.812,0.784,1.06,0.85,–,–,–,–,0.602,0.615,0.691,0.612
NCI-H661,–,–,–,–,0.834,0.758,0.775,0.646,0.912,0.693,0.735,0.443,1.16,–,1.04,0.97,0.301,0.264,0.269,0.318
NCI-H1299,–,–,–,–,–,–,–,–,–,–,–,–,0.989,–,0.988,0.965,–,–,–,–
NCI-H1395,0.421,0.367,0.338,0.407,0.776,0.674,0.808,0.652,0.405,0.442,0.411,0.408,–,–,–,–,0.503,0.462,0.483,0.463
NCI-H1563,–,–,–,–,–,–,–,–,0.38,0.522,0.427,0.382,0.85,0.845,0.802,0.804,0.63,0.602,0.708,0.6
NCI-H1623,–,–,–,–,–,–,–,–,0.562,0.517,0.315,0.366,–,–,–,–,0.559,0.528,0.227,0.264
NCI-H1648,–,0.649,0.64,0.465,0.528,0.304,0.501,0.278,–,–,–,–,–,–,–,–,–,–,–,–
NCI-H1650,–,–,–,–,0.556,0.559,0.488,0.411,0.283,0.265,0.282,0.325,0.85,0.721,0.924,0.643,0.4,0.263,0.411,0.274
NCI-H1703,0.113,0.133,0.142,0.115,–,–,–,–,–,–,–,–,0.592,–,–,0.569,–,–,–,–
NCI-H1792,0.904,0.465,0.6,0.469,–,–,–,–,0.875,0.655,0.981,0.608,1,0.931,1.06,0.801,0.24,0.219,0.207,0.186
NCI-H1793,0.683,0.31,0.438,0.258,0.841,0.36,0.551,0.441,0.342,0.249,0.392,0.272,–,–,–,–,0.344,0.335,0.287,0.243
NCI-H2009,–,–,–,–,0.758,0.713,0.775,0.667,0.365,0.351,0.432,0.238,1.02,1.07,1.15,–,0.533,0.51,0.529,0.49
NCI-H2023,–,–,–,–,0.754,0.475,0.645,0.47,0.639,0.408,0.623,0.44,0.575,0.44,0.469,0.294,0.435,0.418,0.471,0.378
NCI-H2228,–,–,–,–,0.649,0.591,0.458,0.476,0.625,0.492,0.5,0.368,0.516,0.476,0.379,0.32,0.414,0.338,0.357,0.257
NCI-H2342,0.453,0.566,0.502,–,0.615,0.851,0.801,0.789,0.289,0.323,0.304,0.26,–,–,–,–,0.532,0.671,0.572,0.433
SK-LU-1,–,–,–,–,1.01,0.729,0.899,0.718,0.185,0.211,0.186,0.164,1.26,0.914,0.834,0.727,0.621,0.536,0.573,0.479
SK-MES-1,–,–,–,–,1.14,0.619,0.672,0.491,0.338,0.175,0.177,0.156,1.06,0.725,0.524,0.38,0.705,0.599,0.385,0.368
SW 900,0.783,0.52,0.557,0.443,0.683,0.439,0.523,0.448,0.655,0.506,0.517,0.374,–,–,–,–,0.55,0.565,0.679,0.487
SW 1573,–,–,–,–,0.652,0.605,0.824,0.405,0.764,–,0.463,0.41,0.88,0.814,0.864,0.646,0.377,0.412,0.312,0.372
UMC-11,–,–,–,–,0.388,0.403,0.392,0.3,0.512,0.438,0.482,0.424,0.644,0.62,0.84,0.585,0.334,0.281,0.301,0.287
